# Reference: publication PMC11204923, “Marine Cytotoxin Santacruzamate A Derivatives as Potent HDAC1-3 Inhibitors and Their Synergistic Anti-Leukemia Effects with Venetoclax” (Marine Drugs, 2024)
# Experiments:
# HDAC7 = target: T1, HDAC7 (Homo sapiens, UniProt Q8WUI4); assay: In vitro HDAC inhibition fluorescence assay, HDAC7; format: biochemical
# T1 construct: purchased BPS Bioscience
# T1 sequence (Q8WUI4 1-952): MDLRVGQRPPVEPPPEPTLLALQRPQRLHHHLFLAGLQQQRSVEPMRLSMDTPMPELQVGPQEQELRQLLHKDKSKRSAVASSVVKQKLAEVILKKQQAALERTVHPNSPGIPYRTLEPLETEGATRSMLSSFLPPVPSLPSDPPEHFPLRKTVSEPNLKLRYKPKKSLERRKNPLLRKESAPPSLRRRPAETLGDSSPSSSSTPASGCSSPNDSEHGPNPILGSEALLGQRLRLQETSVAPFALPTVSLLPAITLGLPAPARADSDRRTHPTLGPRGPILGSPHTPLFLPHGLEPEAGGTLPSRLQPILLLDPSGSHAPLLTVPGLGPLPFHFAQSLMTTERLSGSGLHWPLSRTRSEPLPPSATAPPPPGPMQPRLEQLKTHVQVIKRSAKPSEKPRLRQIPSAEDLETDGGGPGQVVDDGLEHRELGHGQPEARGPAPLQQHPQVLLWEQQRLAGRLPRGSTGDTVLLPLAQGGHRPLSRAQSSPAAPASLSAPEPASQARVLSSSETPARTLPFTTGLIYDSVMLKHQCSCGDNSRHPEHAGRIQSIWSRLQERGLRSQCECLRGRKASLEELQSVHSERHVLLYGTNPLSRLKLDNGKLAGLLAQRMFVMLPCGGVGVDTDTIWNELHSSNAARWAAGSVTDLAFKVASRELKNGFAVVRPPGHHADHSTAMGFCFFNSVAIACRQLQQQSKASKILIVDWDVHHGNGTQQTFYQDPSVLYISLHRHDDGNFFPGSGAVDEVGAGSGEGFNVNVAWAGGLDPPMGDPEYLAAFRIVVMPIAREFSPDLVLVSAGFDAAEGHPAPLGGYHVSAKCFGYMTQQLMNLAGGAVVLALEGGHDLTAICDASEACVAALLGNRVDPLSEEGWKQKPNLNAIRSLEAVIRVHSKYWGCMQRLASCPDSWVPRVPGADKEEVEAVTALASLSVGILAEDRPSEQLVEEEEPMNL
# Procedure: (§1) All of the HDAC enzymes were purchased from BPS Bioscience. In vitro HDAC inhibition assays were conducted as previously described. In brief, 20 μL of recombinant HDAC enzyme solution (HDAC1-9, 11) was mixed with various concentrations of the tested compound (20 μL). The mixture was incubated at 37 °C for 1 h, and then, 10 μL of fluorogenic substrate (Boc-Lys (acetyl)-AMC for HDAC1, 2, 3 and 6; Boc-Lys (trifluoroacetyl)AMC for HDAC4, 5, 7, 8, 9 and 11) was added to achieve a final concentration of 50 μM. After incubation at 37 °C for 2 h, the catalysis was stopped by the addition of 10 μL of developer containing 30 mg/mL trypsin and 6 μM trichostatin A (TSA). Then, 30 min later, the fluorescence intensity was measured using a microplate reader at excitation and emission wavelengths of 360 and 460 nm, respectively. The inhibition ratios were calculated from the fluorescence intensity readings of tested wells relative to those of control wells, and the IC50 curves and values were determined by GraphPad Prism 6.0, using the “log(inhibitor) vs. normalized response-variable slope” function.
# HDAC5 = target: T2, HDAC5 (Homo sapiens, UniProt Q9UQL6); assay: In vitro HDAC inhibition fluorescence assay, HDAC5; format: biochemical
# T2 construct: purchased BPS Bioscience
# Procedure: as §1
# [1] = In vitro stability in artificial gastric juice; format: in vitro ADME; conditions: 37 °C, within 24 h
# Procedure: Equal samples were collected, and 600 μL acetonitrile was added to quench enzyme reactions. The reaction mixture was swirled for 30 s and then centrifuged at 15,000 rpm at 4 °C for 15 min. The supernatant of each sample was analyzed directly by HPLC (1260 Infinity II, Agilent Technologies, Waldbronn, Germany).
# HDAC6 = target: T3, HDAC6 (Homo sapiens, UniProt Q9UBN7); assay: In vitro HDAC inhibition fluorescence assay, HDAC6; format: biochemical
# T3 construct: purchased BPS Bioscience
# T3 sequence (Q9UBN7 1-1215): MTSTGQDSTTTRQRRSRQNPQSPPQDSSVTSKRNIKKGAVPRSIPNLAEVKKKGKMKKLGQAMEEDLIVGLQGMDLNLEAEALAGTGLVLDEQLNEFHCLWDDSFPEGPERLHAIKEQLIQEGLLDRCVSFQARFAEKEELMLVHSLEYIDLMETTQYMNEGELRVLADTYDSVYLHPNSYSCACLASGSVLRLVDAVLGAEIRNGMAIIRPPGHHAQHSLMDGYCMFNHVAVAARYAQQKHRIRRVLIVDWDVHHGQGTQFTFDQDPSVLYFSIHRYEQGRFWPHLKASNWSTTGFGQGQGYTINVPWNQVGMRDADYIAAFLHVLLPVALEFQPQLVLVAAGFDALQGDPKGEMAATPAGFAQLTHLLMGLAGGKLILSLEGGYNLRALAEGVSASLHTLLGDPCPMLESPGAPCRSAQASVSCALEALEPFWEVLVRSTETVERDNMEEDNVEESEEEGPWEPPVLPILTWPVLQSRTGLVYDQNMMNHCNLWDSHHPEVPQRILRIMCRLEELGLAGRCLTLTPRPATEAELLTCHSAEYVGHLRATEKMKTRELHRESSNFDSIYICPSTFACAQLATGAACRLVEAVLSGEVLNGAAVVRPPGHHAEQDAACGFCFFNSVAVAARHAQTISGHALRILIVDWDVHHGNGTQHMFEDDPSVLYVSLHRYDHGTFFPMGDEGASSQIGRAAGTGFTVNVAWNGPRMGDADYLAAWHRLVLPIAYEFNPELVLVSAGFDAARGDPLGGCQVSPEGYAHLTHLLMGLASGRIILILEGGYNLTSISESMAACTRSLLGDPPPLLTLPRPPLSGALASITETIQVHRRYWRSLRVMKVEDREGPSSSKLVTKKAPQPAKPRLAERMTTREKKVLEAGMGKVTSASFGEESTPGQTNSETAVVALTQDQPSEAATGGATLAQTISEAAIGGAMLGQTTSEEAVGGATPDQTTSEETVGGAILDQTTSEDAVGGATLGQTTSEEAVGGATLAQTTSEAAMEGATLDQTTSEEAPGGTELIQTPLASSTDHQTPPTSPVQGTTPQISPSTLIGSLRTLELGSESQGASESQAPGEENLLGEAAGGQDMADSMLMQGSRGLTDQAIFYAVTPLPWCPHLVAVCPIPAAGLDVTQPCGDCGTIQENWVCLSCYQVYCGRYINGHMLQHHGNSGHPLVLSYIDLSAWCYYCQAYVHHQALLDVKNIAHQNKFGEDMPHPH
# Procedure: as §1
# HDAC4 = target: T4, HDAC4 (Homo sapiens, UniProt P56524); assay: In vitro HDAC inhibition fluorescence assay, HDAC4; format: biochemical
# T4 construct: purchased BPS Bioscience
# Procedure: as §1
# T2 sequence (Q9UQL6 whole entry): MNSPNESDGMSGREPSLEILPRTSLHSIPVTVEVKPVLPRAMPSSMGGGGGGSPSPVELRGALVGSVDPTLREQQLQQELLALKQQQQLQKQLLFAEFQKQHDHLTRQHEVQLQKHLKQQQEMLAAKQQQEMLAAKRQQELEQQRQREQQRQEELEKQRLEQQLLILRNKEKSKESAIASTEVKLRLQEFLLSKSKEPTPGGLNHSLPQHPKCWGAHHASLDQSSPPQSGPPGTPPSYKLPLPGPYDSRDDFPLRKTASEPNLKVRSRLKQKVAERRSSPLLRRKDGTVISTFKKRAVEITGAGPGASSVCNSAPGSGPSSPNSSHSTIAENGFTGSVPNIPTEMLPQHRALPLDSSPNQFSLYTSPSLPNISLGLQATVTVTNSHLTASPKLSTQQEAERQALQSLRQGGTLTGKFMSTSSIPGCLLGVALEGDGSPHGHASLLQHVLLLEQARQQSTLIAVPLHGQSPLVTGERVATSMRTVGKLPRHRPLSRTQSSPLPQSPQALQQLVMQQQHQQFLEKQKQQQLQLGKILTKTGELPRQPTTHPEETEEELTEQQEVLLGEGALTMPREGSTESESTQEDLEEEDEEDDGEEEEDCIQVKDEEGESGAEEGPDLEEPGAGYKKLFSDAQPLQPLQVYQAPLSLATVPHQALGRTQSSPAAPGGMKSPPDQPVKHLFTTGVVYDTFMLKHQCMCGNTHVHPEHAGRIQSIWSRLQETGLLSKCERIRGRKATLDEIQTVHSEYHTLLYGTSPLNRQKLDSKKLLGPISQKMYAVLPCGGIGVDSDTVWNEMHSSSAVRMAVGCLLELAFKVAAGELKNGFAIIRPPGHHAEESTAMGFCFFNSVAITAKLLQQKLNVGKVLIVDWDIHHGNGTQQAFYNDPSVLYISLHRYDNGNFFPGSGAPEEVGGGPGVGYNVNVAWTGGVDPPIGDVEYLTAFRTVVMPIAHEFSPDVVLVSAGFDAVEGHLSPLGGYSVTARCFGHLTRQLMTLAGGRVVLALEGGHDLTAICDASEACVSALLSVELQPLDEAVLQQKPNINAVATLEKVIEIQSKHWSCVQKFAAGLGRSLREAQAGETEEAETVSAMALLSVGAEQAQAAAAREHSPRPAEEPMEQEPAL
# T4 sequence (P56524 whole entry): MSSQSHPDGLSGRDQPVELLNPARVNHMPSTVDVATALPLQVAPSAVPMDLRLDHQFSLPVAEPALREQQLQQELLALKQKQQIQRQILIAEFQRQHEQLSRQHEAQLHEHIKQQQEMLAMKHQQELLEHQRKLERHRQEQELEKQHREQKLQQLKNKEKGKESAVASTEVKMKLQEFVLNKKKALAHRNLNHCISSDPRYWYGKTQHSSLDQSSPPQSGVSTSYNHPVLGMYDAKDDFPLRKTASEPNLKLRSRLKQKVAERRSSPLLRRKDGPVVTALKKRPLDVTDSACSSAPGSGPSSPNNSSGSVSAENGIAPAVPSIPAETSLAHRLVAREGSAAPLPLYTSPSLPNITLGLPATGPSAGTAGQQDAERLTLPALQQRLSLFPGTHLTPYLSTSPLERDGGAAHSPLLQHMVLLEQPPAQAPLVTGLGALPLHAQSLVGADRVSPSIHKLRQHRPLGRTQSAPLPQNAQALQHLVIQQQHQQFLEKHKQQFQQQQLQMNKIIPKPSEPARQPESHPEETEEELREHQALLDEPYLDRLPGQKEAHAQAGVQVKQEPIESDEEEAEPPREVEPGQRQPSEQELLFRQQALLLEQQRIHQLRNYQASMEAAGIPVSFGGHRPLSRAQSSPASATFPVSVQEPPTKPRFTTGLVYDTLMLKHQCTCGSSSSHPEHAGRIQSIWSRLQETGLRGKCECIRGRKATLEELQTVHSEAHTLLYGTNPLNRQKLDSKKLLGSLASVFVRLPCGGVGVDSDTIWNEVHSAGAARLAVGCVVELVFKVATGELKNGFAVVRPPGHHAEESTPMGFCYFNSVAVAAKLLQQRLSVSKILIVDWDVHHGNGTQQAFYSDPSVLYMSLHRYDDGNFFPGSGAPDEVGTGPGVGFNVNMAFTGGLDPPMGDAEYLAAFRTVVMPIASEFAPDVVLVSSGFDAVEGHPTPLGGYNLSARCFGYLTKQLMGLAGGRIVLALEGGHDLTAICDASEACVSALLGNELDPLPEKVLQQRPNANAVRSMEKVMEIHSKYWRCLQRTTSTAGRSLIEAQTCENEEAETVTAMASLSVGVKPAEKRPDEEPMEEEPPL
smiles,measurement,setting,value
"CCCNNC(=O)C=Cc1ccc(CNCCc2ccccc2)cc1 [Compound 25c, 3-(4-((Phenethylamino)methyl)phenyl)-N′-propylacrylohydrazide]",IC50,HDAC7,> 10 µM
same,IC50,HDAC5,> 10 µM
same,stability in artificial gastric juice,[1],relatively stable
same,IC50,HDAC6,> 10 µM
same,IC50,HDAC4,> 10 µM
